# Patent US6737383B1, “Herbicidal oxadiazolidines” (priority 1999, dated 2004)
# Assays:
# blackgrass = assay: Test B pre/postemergence blackgrass; type: in vivo, Alopecurus myosuroides; conditions: for Blackgrass plant response rating: scale of 0 to 10 where 0 is no effect and 10 is complete control
# Procedure, shortened: (§1)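 Herbicidal effect was estimated by eye on a ten-point control scale after plants spent twelve to sixteen days in a greenhouse following soil or foliar treatment. Foliar sprays targeted plants at one to four leaves; all doses were formulated in a non-phytotoxic solvent with surfactant.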
# surinam grass = assay: Test B pre/postemergence surinam grass; type: in vivo, Brachiaria decumbens; conditions: for B. signalgrass plant response rating: scale of 0 to 10 where 0 is no effect and 10 is complete control
# Procedure, shortened: as §1
# cocklebur = assay: Test B pre/postemergence cocklebur; type: in vivo, Xanthium strumarium; conditions: for Cocklebur plant response rating: scale of 0 to 10 where 0 is no effect and 10 is complete control
# Procedure, shortened: as §1
# corn = assay: Test B pre/postemergence corn; type: in vivo, Zea mays; conditions: for Corn plant response rating: scale of 0 to 10 where 0 is no effect and 10 is complete control
# Procedure, shortened: as §1
# crabgrass = assay: Test B pre/postemergence crabgrass; type: in vivo, Digitaria sanguinalis; conditions: for Crabgrass plant response rating: scale of 0 to 10 where 0 is no effect and 10 is complete control
# Procedure, shortened: as §1
# giant foxtail = assay: Test B pre/postemergence giant foxtail; type: in vivo, Setaria faberii; conditions: for Giant foxtail plant response rating: scale of 0 to 10 where 0 is no effect and 10 is complete control
# Procedure, shortened: as §1
# morningglory = assay: Test B pre/postemergence morningglory; type: in vivo, Ipomoea hederacea; conditions: for Morningglory plant response rating: scale of 0 to 10 where 0 is no effect and 10 is complete control
# Procedure, shortened: as §1
# pigweed = assay: Test B pre/postemergence pigweed; type: in vivo, Amaranthus retroflexus; conditions: for Redroot pigweed plant response rating: scale of 0 to 10 where 0 is no effect and 10 is complete control
# Procedure, shortened: as §1
# rape = assay: Test B pre/postemergence rape; type: in vivo, Brassica napus; conditions: for Rape plant response rating: scale of 0 to 10 where 0 is no effect and 10 is complete control
# Procedure, shortened: as §1
# soybean = assay: Test B pre/postemergence soybean; type: in vivo, Glycine max; conditions: for Soybean plant response rating: scale of 0 to 10 where 0 is no effect and 10 is complete control
# Procedure, shortened: as §1
# sugar beet = assay: Test B pre/postemergence sugar beet; type: in vivo, Beta vulgaris; conditions: for Sugarbeets plant response rating: scale of 0 to 10 where 0 is no effect and 10 is complete control
# Procedure, shortened: as §1
# velvetleaf = assay: Test B pre/postemergence velvetleaf; type: in vivo, Abutilon theophrasti; conditions: for Velvetleaf plant response rating: scale of 0 to 10 where 0 is no effect and 10 is complete control
# Procedure, shortened: as §1
# wild oat = assay: Test B pre/postemergence wild oat; type: in vivo, Avena fatua; conditions: for Wild oats plant response rating: scale of 0 to 10 where 0 is no effect and 10 is complete control
# Procedure, shortened: as §1
# purple nutsedge = assay: Test B pre/postemergence purple nutsedge; type: in vivo, Cyperus rotundus; conditions: for Nutsedge plant response rating: scale of 0 to 10 where 0 is no effect and 10 is complete control
# Procedure, shortened: as §1
# smallflower flatsedge = assay: Test B flood test smallflower flatsedge; type: in vivo, Cyperus difformis
# Procedure, shortened: (§2)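 Flood test on plants grown to the 2-leaf stage; treated plants kept in greenhouse twelve to sixteen days, then visually rated against controls on a 0 (no effect) to 10 (complete control) scale.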
# bamyardgrass = assay: Test B flood test barnyardgrass; type: in vivo, Echinochloa crus-galli
# Procedure, shortened: as §2
# [1] = Postemergence, Rate 125 g/ha, scale 0 to 10, 0 is no effect, 10 is complete control
# [2] = Postemergence, Rate 250 g/ha, scale 0 to 10, 0 is no effect, 10 is complete control
# [3] = Preemergence, Rate 62 g/ha, scale 0 to 10 (0 no effect, 10 complete control)
# [4] = Rate 500 g/ha, Postemergence, scale 0 to 10, 0 no effect, 10 complete control
# [5] = Rate 62 g/ha, flood test species, Pre-emergence, visual evaluation after twelve to sixteen days
# [6] = Rate 125 g/ha, under heading Pre-emergence, flood test species, visual evaluation after twelve to sixteen days
# [7] = Rate 250 g/ha, Pre-emergence, flood-test species, scale 0 to 10, 0 is no effect, 10 is complete control
# [8] = Rate 500 g/ha, Pre-emergence, flood test species, scale 0 to 10 (0 no effect, 10 complete control)
smiles,measurement,setting,value
CCOc1nc(C(F)(F)F)c(Cn2c(=O)on(C(=O)N(c3ccc(F)cc3)C(C)C)c2=O)s1 [Compound 381],"Plant response rating, Blackgrass",blackgrass; [1],0
same,"Plant response rating, Blackgrass",blackgrass; [2],0
same,"Plant response rating, Blackgrass",blackgrass; [3],0
same,Blackgrass plant response rating (0 to 10 scale),"blackgrass; Preemergence, Rate 125 g/ha",0
same,Blackgrass plant response rating,"blackgrass; Preemergence, Rate 250 g/ha",0
same,Blackgrass plant response rating,"blackgrass; Preemergence, Rate 500 g/ha",2
same,Blackgrass plant response rating,"blackgrass; Rate 62 g/ha, Postemergence",0
same,"Plant response rating, Blackgrass",blackgrass; [4],0
same,"Plant response rating, B. signalgrass",surinam grass; [1],0
same,"Plant response rating, B. signalgrass",surinam grass; [2],0
same,"Plant response rating, B. signalgrass",surinam grass; [3],0
same,"B. signalgrass plant response rating (0 to 10 scale, 0 is no effect, 10 is complete control)","surinam grass; Preemergence, Rate 125 g/ha",0
same,B. signalgrass plant response rating,"surinam grass; Preemergence, Rate 250 g/ha",0
same,B. signalgrass plant response rating,"surinam grass; Preemergence, Rate 500 g/ha",0
same,B. signalgrass plant response rating,"surinam grass; Rate 62 g/ha, Postemergence",0
same,"Plant response rating, B. signalgrass",surinam grass; [4],0
same,"Plant response rating, Cocklebur",cocklebur; [1],0
same,"Plant response rating, Cocklebur",cocklebur; [2],0
same,"Plant response rating, Cocklebur",cocklebur; [3],0
same,Cocklebur plant response rating (0 to 10 scale),"cocklebur; Preemergence, Rate 125 g/ha",0
same,Cocklebur plant response rating,"cocklebur; Preemergence, Rate 250 g/ha",0
same,Cocklebur plant response rating,"cocklebur; Preemergence, Rate 500 g/ha",0
same,Cocklebur plant response rating,"cocklebur; Rate 62 g/ha, Postemergence",0
same,"Plant response rating, Cocklebur",cocklebur; [4],0
same,"Plant response rating, Corn",corn; [1],0
same,"Plant response rating, Corn",corn; [2],0
same,"Plant response rating, Corn",corn; [3],0
same,Corn plant response rating (0 to 10 scale),"corn; Preemergence, Rate 125 g/ha",0
same,Corn plant response rating,"corn; Preemergence, Rate 250 g/ha",0
same,Corn plant response rating,"corn; Preemergence, Rate 500 g/ha",2
same,Corn plant response rating,"corn; Rate 62 g/ha, Postemergence",0
same,"Plant response rating, Corn",corn; [4],0
same,"Plant response rating, Crabgrass",crabgrass; [1],0
same,"Plant response rating, Crabgrass",crabgrass; [2],0
same,"Plant response rating, Crabgrass",crabgrass; [3],0
same,Crabgrass plant response rating (0 to 10 scale),"crabgrass; Preemergence, Rate 125 g/ha",0
same,Crabgrass plant response rating,"crabgrass; Preemergence, Rate 250 g/ha",3
same,Crabgrass plant response rating,"crabgrass; Preemergence, Rate 500 g/ha",9
same,Crabgrass plant response rating,"crabgrass; Rate 62 g/ha, Postemergence",0
same,"Plant response rating, Crabgrass",crabgrass; [4],0
same,"Plant response rating, Giant foxtail",giant foxtail; [1],0
same,"Plant response rating, Giant foxtail",giant foxtail; [2],0
same,"Plant response rating, Giant foxtail",giant foxtail; [3],0
same,Giant foxtail plant response rating (0 to 10 scale),"giant foxtail; Preemergence, Rate 125 g/ha",0
same,Giant foxtail plant response rating,"giant foxtail; Preemergence, Rate 250 g/ha",5
same,Giant foxtail plant response rating,"giant foxtail; Preemergence, Rate 500 g/ha",9
same,Giant foxtail plant response rating,"giant foxtail; Rate 62 g/ha, Postemergence",0
same,"Plant response rating, Giant foxtail",giant foxtail; [4],0
same,"Plant response rating, Morningglory",morningglory; [1],2
same,"Plant response rating, Morningglory",morningglory; [2],2
same,"Plant response rating, Morningglory",morningglory; [3],0
same,Morningglory plant response rating (0 to 10 scale),"morningglory; Preemergence, Rate 125 g/ha",0
same,Morningglory plant response rating,"morningglory; Preemergence, Rate 250 g/ha",0
same,Morningglory plant response rating,"morningglory; Preemergence, Rate 500 g/ha",0
same,Morningglory plant response rating,"morningglory; Rate 62 g/ha, Postemergence",2
same,"Plant response rating, Morningglory",morningglory; [4],7
same,"Plant response rating, Redroot pigweed",pigweed; [1],0
same,"Plant response rating, Redroot pigweed",pigweed; [2],0
same,"Plant response rating, Redroot pigweed",pigweed; [3],0
same,Redroot pigweed plant response rating (0 to 10 scale),"pigweed; Preemergence, Rate 125 g/ha",0
same,Redroot pigweed plant response rating,"pigweed; Preemergence, Rate 250 g/ha",0
same,Redroot pigweed plant response rating,"pigweed; Preemergence, Rate 500 g/ha",0
same,Redroot pigweed plant response rating,"pigweed; Rate 62 g/ha, Postemergence",0
same,"Plant response rating, Redroot pigweed",pigweed; [4],2
same,"Plant response rating, Rape",rape; [1],0
same,"Plant response rating, Rape",rape; [2],0
same,"Plant response rating, Rape",rape; [3],0
same,Rape plant response rating (0 to 10 scale),"rape; Preemergence, Rate 125 g/ha",0
same,Rape plant response rating,"rape; Preemergence, Rate 250 g/ha",0
same,Rape plant response rating,"rape; Preemergence, Rate 500 g/ha",0
same,Rape plant response rating,"rape; Rate 62 g/ha, Postemergence",0
same,"Plant response rating, Rape",rape; [4],6
same,"Plant response rating, Soybean",soybean; [1],2
same,"Plant response rating, Soybean",soybean; [2],2
same,"Plant response rating, Soybean",soybean; [3],0
same,Soybean plant response rating (0 to 10 scale),"soybean; Preemergence, Rate 125 g/ha",0
same,Soybean plant response rating,"soybean; Preemergence, Rate 250 g/ha",0
same,Soybean plant response rating,"soybean; Preemergence, Rate 500 g/ha",0
same,Soybean plant response rating,"soybean; Rate 62 g/ha, Postemergence",1
same,"Plant response rating, Soybean",soybean; [4],2
same,"Plant response rating, Sugarbeets",sugar beet; [1],0
same,"Plant response rating, Sugarbeets",sugar beet; [2],0
same,"Plant response rating, Sugarbeets",sugar beet; [3],0
same,Sugarbeets plant response rating (0 to 10 scale),"sugar beet; Preemergence, Rate 125 g/ha",0
same,Sugarbeets plant response rating,"sugar beet; Preemergence, Rate 250 g/ha",0
same,Sugarbeets plant response rating,"sugar beet; Preemergence, Rate 500 g/ha",0
same,Sugarbeets plant response rating,"sugar beet; Rate 62 g/ha, Postemergence",0
same,"Plant response rating, Sugarbeets",sugar beet; [4],0
same,"Plant response rating, Velvetleaf",velvetleaf; [1],0
same,"Plant response rating, Velvetleaf",velvetleaf; [2],0
same,"Plant response rating, Velvetleaf",velvetleaf; [3],0
same,Velvetleaf plant response rating (0 to 10 scale),"velvetleaf; Preemergence, Rate 125 g/ha",0
same,Velvetleaf plant response rating,"velvetleaf; Preemergence, Rate 250 g/ha",0
same,Velvetleaf plant response rating,"velvetleaf; Preemergence, Rate 500 g/ha",0
same,Velvetleaf plant response rating,"velvetleaf; Rate 62 g/ha, Postemergence",0
same,"Plant response rating, Velvetleaf",velvetleaf; [4],0
same,"Plant response rating, Wild oats",wild oat; [1],0
same,"Plant response rating, Wild oats",wild oat; [2],0
same,"Plant response rating, Wild oats",wild oat; [3],0
same,Wild oats plant response rating (0 to 10 scale),"wild oat; Preemergence, Rate 125 g/ha",0
same,Wild oats plant response rating,"wild oat; Preemergence, Rate 250 g/ha",0
same,Wild oats plant response rating,"wild oat; Preemergence, Rate 500 g/ha",0
same,Wild oats plant response rating,"wild oat; Rate 62 g/ha, Postemergence",0
same,"Plant response rating, Wild oats",wild oat; [4],0
same,"Plant response rating, Nutsedge",purple nutsedge; [1],0
same,"Plant response rating, Nutsedge",purple nutsedge; [2],0
same,"Plant response rating, Nutsedge",purple nutsedge; [3],0
same,Nutsedge plant response rating (0 to 10 scale),"purple nutsedge; Preemergence, Rate 125 g/ha",0
same,Nutsedge plant response rating,"purple nutsedge; Preemergence, Rate 250 g/ha",0
same,Nutsedge plant response rating,"purple nutsedge; Preemergence, Rate 500 g/ha",0
same,Nutsedge plant response rating,"purple nutsedge; Rate 62 g/ha, Postemergence",0
same,"Plant response rating, Nutsedge",purple nutsedge; [4],0
same,"Plant response rating, S. Flatsedge (0 to 10 scale, 0 is no effect, 10 is complete control)",smallflower flatsedge; [5],0
same,"S. Flatsedge plant response rating (0 to 10 scale, 0 is no effect, 10 is complete control)",smallflower flatsedge; [6],0
same,S. Flatsedge plant response rating,smallflower flatsedge; [7],0
same,S. Flatsedge plant response rating,smallflower flatsedge; [8],0
same,"Plant response rating, Barnyardgrass (0 to 10 scale, 0 is no effect, 10 is complete control)",bamyardgrass; [5],0
same,"Barnyardgrass plant response rating (0 to 10 scale, 0 is no effect, 10 is complete control)",bamyardgrass; [6],0
same,Barnyardgrass plant response rating,bamyardgrass; [7],0
same,Barnyardgrass plant response rating,bamyardgrass; [8],0
